Test results taken from US6103751A, “Carotene analogs of porphyrins, chlorins and bacteriochlorins as therapeutic and diagnostic agents” (Health Research, Inc., priority 1998, dated 2000).

How the values were obtained:
[1] = Partition Coefficient (log P); type: physicochemical
RIF tumor = assay: In vivo photosensitizing activity (tumor response after laser illumination); design: species or system C3H mice
Description: Preliminary In Vivo Activity:
RIF rumors were implanted subcutaneously into the axilla of 5-7 week old female C3H mice. When tumors grew to about 5 mm diameter, mice were injected with photosensitizers at various doses. The mice (6 mice/group) were restrained in aluminum holders and each tumor illuminated with 135 J/cm^2 light from a laser tuned at the longest wavelength absorption maximum of the photosensitizers. The percentage of short-term control was recorded daily.
*Six mice/group (RIF tumor). 1.0 μmol/kg, 705 nm, 135 J/cm^2 (24 h
*Six mice/group (RIF tumor). 135 J/cm^2

[2] = Fluorescence spectroscopy in dichloromethane; type: physicochemical
Description: Fluorescence Spectroscopy:
The fluorescence spectra of HPPH 2, purpurin-imide 4 and their corresponding carotene conjugates 3 and 6 were measured in dichloromethane. In the case of HPPH and its carotenoid analog, excitation at 660 nm gave strong emission at 670 nm. Similarly, purpurin imide and its carotenoid analog on excitation at 705 nm produced emission at 715 nm. Due to their strong fluorescence, and higher uptake in tumors, these compounds show great potential for use as diagnostic agents for malignant and non-malignant tumors.

[3] = tested on: radiation induced fibrosarcoma (RIF) tumor; assay: Tumor uptake by in vivo reflection spectroscopy; design: species or system C3H mice; details: 5 micro mole/Kg; tumor vs skin fold; 3 h and 24 h post injection
Description: Determination of Tumor Uptake by In Vivo Reflection Spectroscopy:
The tumor uptake of the parent photosensitizer 2 (HPPH), FIG. 1, and purpurin with a fused imide ring 4, FIG. 2, were compared to the corresponding carotene conjugate 3 and 6 by in vivo reflection spectroscopy.
For these experiments, C3H mice with an axillary radiation induced fibrosarcoma (RIF) tumor were injected with the drug in an amount of 5 micro mole/Kg of body weight and the in vivo absorption specta were taken at various time intervals. FIGS. 3 and 4 respectively show the uptake of HPPH 2 and purpurin-imide 4 at 24 h post injection. FIGS. 5 and 6 show the uptake of the HPPH-carotene conjugate at 3 h and 24 h post injection.

[4] = Singlet oxygen production in oxygen saturated toluene, singlet oxygen phosphorescence at 1270 nm; type: physicochemical; details: for singlet oxygen production: phosphorescence at 1270 nm
Description: The carboxylic acid functionality was first activated by preparing carbodiimide analog (in situ) before condensing with amino carotene. The structure of the conjugate was confirmed by NMR and mass spectrometry. The singlet oxygen production by HPPH and its carotene conjugate was measured in oxygen saturated toluene solutions by monitoring the singlet oxygen phosphorescence at 1270 nm. […] Thus, a complete photoprotection was achieved.

`CCCCCCN1C(=O)c2c3nc(cc4[nH]c(cc5nc(cc6[nH]c2c(c6C)C1=O)C(CC)=C5C)c(C(C)OC)c4C)[C@@H](C)[C@@H]3CCC(=O)OC` (stereo partly shown) [Methyl Hexyl] gave a logP [1] of 7.72.

In the case of `CCCCCCCOC(C)c1c(C)c2cc3nc(c4c5[nH]c(cc6nc(cc1[nH]2)C(C)=C6CC)c(C)c5C(=O)N(CCCCCC)C4=O)[C@@H](CCC(=O)OC)[C@@H]3C` (stereo partly shown) [Purpurin-imide (4), heptyl ether analog of N-hexyl purpurin imide], the “% TUMOR RESPONSE day 7” value (RIF tumor; 1.0 μmol/kg, 705 nm, 24 between inj. & treatment, 135 J/cm^2, day 7, Table 2) is reported as 100%, the “% TUMOR RESPONSE day 21” value (RIF tumor; 1.0 μmol/kg, 705 nm, 24 between inj. & treatment, 135 J/cm^2, day 21, Table 2) is reported as 100% and the “% TUMOR RESPONSE day 30” value (RIF tumor; 1.0 μmol/kg, 705 nm, 24 between inj. & treatment, 135 J/cm^2, day 30, Table 2) is reported as 100%. For the same compound, the “% TUMOR RESPONSE day 90” value (RIF tumor; 1.0 μmol/kg, 705 nm, 24 between inj. & treatment, 135 J/cm^2, day 90, Table 2) was 83%, the “Tumor Response days 1-2” value (RIF tumor; 1.0 μmol/kg, 705 nm, 135 J/cm^2, 24 h post injection, Table 1) was 100% and the “mice tumor free on day 90” value (RIF tumor; 1.0 μmol/kg, 705 nm, 135 J/cm^2, day 90) was 5/6. The “in vivo activity among the compounds tested” value (RIF tumor; dose of 1.0 μmol/kg) was “most effective” and the fluorescence emission wavelength ([2]; excitation at 705 nm) was 715 nm.

For `CCCCCCOC(C)c1c(C)c2cc3nc(c4c5[nH]c(cc6nc(cc1[nH]2)C(C)=C6CC)c(C)c5C(=O)N(CCC)C4=O)[C@@H](CCC(=O)OC)[C@@H]3C` (stereo partly shown) [Hexyl Propyl], the “Tumor Response day 7” value (RIF tumor; 0.5 μmol, 705 nm, 135 J/cm^2, 24 h post injection, day 7, Table 1) was 66%, the “Tumor Response day 14” value (RIF tumor; 0.5 μmol, 705 nm, 135 J/cm^2, 24 h post injection, day 14, Table 1) was 33% and the “Tumor Response day 21” value (RIF tumor; 0.5 μmol, 705 nm, 135 J/cm^2, 24 h post injection, day 21, Table 1) was 17%. For the same compound, the “Tumor Response day 30” value (RIF tumor; 0.5 μmol, 705 nm, 135 J/cm^2, 24 h post injection, day 30, Table 1) was 17%, the “Tumor Response day 90” value (RIF tumor; 0.5 μmol, 705 nm, 135 J/cm^2, 24 h post injection, day 90, Table 1) was 17% and the “Tumor Response days 1-2” value (RIF tumor; 0.5 μmol, 705 nm, 135 J/cm^2, 24 h post injection, Table 1) was 100%. For the same compound, the logP [1] was 8.72.

In the case of `CCCCCCOC(C)c1c(C)c2cc3nc(c4c5[nH]c(cc6nc(cc1[nH]2)C(C)=C6CC)c(C)c5C(=O)C4)[C@@H](CCC(=O)Nc1ccc(/C=C/C(C)=C/C=C/C(C)=C/C=C/C=C(C)/C=C/C=C(C)/C=C/C2=C(C)CCCC2(C)C)cc1)[C@@H]3C` (stereo partly shown) [HPPH-carotene (3)], the “TUMOR RESPONSE (all days)” value (RIF tumor; 0.47 μmol/kg, 665 nm, 24 between inj. & treatment, 135 J/cm^2, Table 2) is reported as “NO RESPONSE”, the “tumor uptake compared to parent compound” value [3] is reported as “significant uptake of the drug in the tumor vs the skin fold” and the fluorescence emission wavelength ([2]; excitation at 660 nm) is reported as 670 nm. For the same compound, the singlet oxygen production ([4]; oxygen saturated toluene) was “did not produce singlet oxygen”.

`CCCN1C(=O)c2c3nc(cc4[nH]c(cc5nc(cc6[nH]c2c(c6C)C1=O)C(CC)=C5C)c(C(C)OC)c4C)[C@@H](C)[C@@H]3CCC(=O)OC` (stereo partly shown) [Methyl Propyl] gave a logP [1] of 6.22.

`CCCCCCN1C(=O)c2c3nc(cc4[nH]c(cc5nc(cc6[nH]c2c(c6C)C1=O)C(CC)=C5C)c(C(C)OCCC)c4C)[C@@H](C)[C@@H]3CCC(=O)OC` (stereo partly shown) [Propyl Hexyl] gave a logP [1] of 8.72.

For `CCCOC(C)c1c(C)c2cc3nc(c4c5[nH]c(cc6nc(cc1[nH]2)C(C)=C6CC)c(C)c5C(=O)N(CCC)C4=O)[C@@H](CCC(=O)OC)[C@@H]3C` (stereo partly shown) [Propyl Propyl], the logP [1] was 7.22.

With `CCCCCCCOC(C)c1c(C)c2cc3nc(c4c5[nH]c(cc6nc(cc1[nH]2)C(C)=C6CC)c(C)c5C(=O)N(CCCCCC)C4=O)[C@@H](CCC(=O)Nc1ccc(/C=C/C(C)=C/C=C/C(C)=C/C=C/C=C(C)/C=C/C=C(C)/C=C/C2=C(C)CCCC2(C)C)cc1)[C@@H]3C` (stereo partly shown) [Purpurin-imide-carotene (6)] the “TUMOR RESPONSE (all days)” value (RIF tumor; 1.0 μmol/kg, 705 nm, 24 between inj. & treatment, 135 J/cm^2, Table 2) was “NO RESPONSE” and the fluorescence emission wavelength ([2]; excitation at 705 nm) was 715 nm.

In the case of `CCCCCCOC(C)c1c(C)c2cc3nc(c4c5[nH]c(cc6nc(cc1[nH]2)C(C)=C6CC)c(C)c5C(=O)C4)[C@@H](CCC(=O)O)[C@@H]3C` (stereo partly shown) [HPPH (2), Hexyl ether analog of pyropheophorbide-a, reference compound], the “% TUMOR RESPONSE day 1-2” value (RIF tumor; 0.47 μmol/kg, 665 nm, 24 between inj. & treatment, 135 J/cm^2, day 1-2, Table 2) is reported as 100%, the “% TUMOR RESPONSE day 7” value (RIF tumor; 0.47 μmol/kg, 665 nm, 24 between inj. & treatment, 135 J/cm^2, day 7, Table 2) is reported as 100% and the “% TUMOR RESPONSE day 30” value (RIF tumor; 0.47 μmol/kg, 665 nm, 24 between inj. & treatment, 135 J/cm^2, day 30, Table 2) is reported as 50%. The “% TUMOR RESPONSE day 90” value (RIF tumor; 0.47 μmol/kg, 665 nm, 24 between inj. & treatment, 135 J/cm^2, day 90, Table 2) was 50%, the “% TUMOR RESPONSE day 21” value (RIF tumor; 0.47 umol/kg, 504 h) was 80% and the fluorescence emission wavelength ([2]; excitation at 660 nm) was 670 nm. The “fluorescence yield (Φf)” value [4] was 0.48, the “singlet oxygen yield (ΦΔ)” value ([4]; oxygen saturated toluene) was 0.45 and the singlet oxygen production ([4]; oxygen saturated toluene) was “Ample production”.
